Legend:
Propionibacterium = assay: antibacterial activity, tube double dilution method, clinically obtained bacteria; format: cell-based
Experimental: (§1) The antibacterial activities of the hydrates of erythromycin salts are determined by culturing clinically obtained bacteria and measuring in accordance with pharmacological test methods (the tube double dilution method), and the results are shown in the following tables 9, 10, 11 and 12.

Neisseria gonorrhoeae = assay: as above; format: cell-based
Experimental: as §1

Bacillus influenzae = assay: as above; format: cell-based
Experimental: as §1

Pneumococcus = assay: as above; format: cell-based
Experimental: as §1

[1] = tested on: Streptococcus hemolyticus; assay: as above; format: cell-based
Experimental: as §1

Bacillus fragilis = assay: as above; format: cell-based
Experimental: as §1

Staphylococcus aureus = assay: as above; format: cell-based; details: 26 strains
[2] = tested on: Staphylococcus epidermidis; assay: as above; format: cell-based; details: 21 strains
[3] = accelerated stability test (sealed vial, 30° C., HPLC content and related substances); format: physicochemical
Experimental: The hydrates of erythromycin salts according to the present invention can be stably stored. A sample of the above hydrates was sealed in a vial, and an accelerated stability test was conducted at 30° C. and changes of the content and related substances were measured by a HPLC method (C18 reverse phase column, 0.01M KH2PO4-acetonitrile (60:40) as the mobile phase, detective wavelength: 215 nm, column temperature: 35° C., flow rate: 1.0 ml/min) (upon different hydrates of erythromycin salts, such as crystalline hydrates of erythromycin thiocyanate, the pH of the mobile phase can be adjusted and KH2PO4 can be changed into NaH2PO4, the detective wavelength can be changed into 210 nm, and the column temperature can be set at 35-55° C., such as 50° C. for analysis and measurement). […] As compared to the anhydrous of erythromycin salt, the hydrates of erythromycin salts according to the present invention have a lower hygroscopicity, i.e., has a better stability of hygroscopicity, which facilitates the package and storage thereof, or is a more advantageously stable form for storage relative to the anhydrous.

[4] = spray-dried product
Escherichia coli = assay: antibacterial activity, tube double dilution method, clinically obtained bacteria; format: cell-based; details: 21 strains
Streptococcus viridan = assay: as above; format: cell-based; details: 23 strains

With `CC[C@H]1OC(=O)[C@H](C)[C@@H](O[C@H]2C[C@@](C)(OC)[C@@H](O)[C@H](C)O2)[C@H](C)[C@@H](O[C@@H]2O[C@H](C)C[C@H](N(C)C)[C@H]2O)[C@](C)(O)C[C@@H](C)C(=O)[C@H](C)[C@@H](O)[C@]1(C)O.O.O.O.O.O.O=C(O)[C@H](O)[C@@H](O)[C@H](O[C@@H]1O[C@H](CO)[C@H](O)[C@H](O)[C@H]1O)[C@H](O)CO` [erythromycin lactobionate pentahydrate] the MIC50 (Propionibacterium; 18 strains) was 0.06 µg/mL, the MIC90 (Propionibacterium; 18 strains) was 0.12 µg/mL and the MIC (Propionibacterium; range over 18 strains) was 0.03 to 16 µg/mL. The MIC50 (Neisseria gonorrhoeae; 16 strains) was 0.25 µg/mL, the MIC90 (Neisseria gonorrhoeae; 16 strains) was 1 µg/mL and the MIC (Neisseria gonorrhoeae; range over 16 strains) was 0.06 to 2 µg/mL. It also gave an MIC50 (Bacillus influenzae; 17 strains) of 4 µg/mL, an MIC90 (Bacillus influenzae; 17 strains) of 8 µg/mL and an MIC (Bacillus influenzae; range over 17 strains) of 0.12 to 8 µg/mL. For the same compound, the MIC50 (Pneumococcus; 18 strains) was 0.06 µg/mL, the MIC90 (Pneumococcus; 18 strains) was 1 µg/mL and the MIC (Pneumococcus; range over 18 strains) was 0.03 to 0.5 µg/mL. For the same compound, the MIC50 ([1]; 16 strains) was 0.06 µg/mL, the MIC90 ([1]; 16 strains) was 32 µg/mL and the MIC ([1]; range over 16 strains) was 0.03 to 32 µg/mL. The MIC50 (Bacillus fragilis; 15 strains) was 4 µg/mL, the MIC90 (Bacillus fragilis; 15 strains) was 16 µg/mL and the MIC (Bacillus fragilis; range over 15 strains) was 0.5 to 64 µg/mL. The MIC50 (Staphylococcus aureus) was 0.12 µg/mL, the MIC50 [2] was 16 µg/mL and the “Assay (%)” value ([3]; month 0) was 99.9%. For the same compound, the Form ([3]; month 0) was “off-white powder”, the “Assay (%)” value ([3]; month 1) was 100.2% and the Form ([3]; month 1) was “off-white powder”. For the same compound, the “Assay (%)” value ([3]; month 2) was 99.8%, the Form ([3]; month 2) was “off-white powder” and the “Assay (%)” value ([3]; month 3) was 100.1%. The Form ([3]; month 3) was “off-white powder”, the “Assay (%)” value ([3]; month 6) was 99.9% and the Form ([3]; month 6) was “off-white powder”. For the same compound, the potency [4] was 626 u/mg, the MIC50 (Escherichia coli) was 4 µg/mL and the MIC50 (Streptococcus viridan) was 0.06 µg/mL. The MIC90 (Streptococcus viridan) was 0.5 µg/mL.
